Here are results for 2 compounds from patent US20050148786A1, “Diimmonium compound and use thereof” (Nippon Kayaku Kabushiki Kaisha, priority 2003, published 2005).

A short description of data set [1]: Stability test of heat resistance of near-IR absorption filter. The format is physicochemical. Here is the method:
(§1) 1.2 part of each compound obtained in each Example was dissolved in 18.8 part of MEK. 80 part of a resin solution obtained by dissolving 25 part of an acrylic resin (Dianal BR-80, manufactured by Mitsubishi Rayon Co., Ltd.) in 75 part of MEK was mixed with the obtained solution to obtain a solution for coating. The solution was applied to form a film with a thickness of 2 to 4 μm on a polyester film and dried at 80° C. to obtain a near-IR absorption filter of the invention.
[…] After that, the filters were subjected to color measurement by a spectrophotometer to calculate L*, a*, and b* values and their stability was evaluated based on the change in b* values. If the b* is low, that is, the absorption in visible ray region is low, the near-IR absorption filter is preferable.

Data set [2] in a line: Stability test of light fastness of cyanine dye film. It is filed as physicochemical. The conditions noted are these: for remaining ratio of cyanine dye (%), initial period: OM-57 dye film with compound added, before irradiation; for remaining ratio of cyanine dye (%), 100-hour after / remaining ratio of cyanine dye (%), 150-hour after: Weatherometer 0.36 W/m^2, 24° C., 30% RH. The method, then: 0.3 part of the cyanine dye (OM-57) was dissolved in 15 part of tetrafluoropropanol and 0.04 part of the Compound No. 3 was added to the obtained solution to produce a coating solution. The obtained coating solution was applied to a polycarbonate substrate by spin coating to form a dye film. The […] the conditions: light source output: 0.36 W/m^2; bath temperature: 24° C.; black panel temperature: 40° C.; humidity: 30% RH: by a Weatherometer (Ci4000, manufactured by Atlas Co.). After that, the remaining ratio of the cyanine dye was measured by a spectrophotometer.
For comparison, a dye film was formed and evaluated in the same manner, except that the compound described in Patent Document No. 3; hexafluoroantimonate of tetrakis[p-di(n-butyl)aminophenyl]phenylenediimmonium (Comparative Example 7: Compound No. 153); was used in place of the Compound No. 1.

Data set [3] can be described thus: Stability test of light fastness of diimmonium compound thin film. It is filed as physicochemical. The settings on record: for remaining ratio of diimmonium compound (%), 100-hour after / remaining ratio of diimmonium compound (%), 150-hour after: Weatherometer 0.36 W/m^2, 24° C., 30% RH; for remaining ratio of diimmonium compound (%), initial period: thin film on polycarbonate, before irradiation. The method, then:
0.1 part of the Compound No. 3 was added to 10 part of tetrafluoropropanol to produce a coating solution. The obtained coating solution was applied to a polycarbonate substrate by spin coating to form a thin film of the diimmonium compound. The […] source output: 0.36 W/m^2; bath temperature: 24° C.; black panel temperature: 40° C.; humidity: 30% RH: by a Weatherometer (Ci4000, manufactured by Atlas Co.). After that, the remaining ratio of the diimmonium compound was measured by a spectrophotometer.
For comparison, a dye film was formed and evaluated in the same manner, except that the compound described in Patent Document No. 3; hexafluoroantimonate of tetrakis[p-di(n-butyl)aminophenyl]phenylenediimmonium (Comparative Example 8: Compound No. 153); was used in place of the Compound No. 3.

Data set [4] in a line: Comparative test of solubility measurement. The settings on record: room temperature; for solubility in MEK: methyl ethyl ketone.
Method: The solubility was measured for the compounds obtained in the above-mentioned Examples at a room temperature in methyl ethyl ketone (MEK) and toluene.
Data set [5] is described as follows: Comparative test of molar absorption coefficient measurement. The format is physicochemical. The conditions noted are these: in dichloromethane; in M-1·cm-1. An excerpt:
The compounds obtained in the above-mentioned Examples were subjected to the measurement of molar absorption coefficient (ε) in dichloromethane.

The nature of data set [6]: thermal decomposition point (weight decrease starting point) by TG-DTA. The format is physicochemical. The conditions noted are these: measured by TG-DTA. Here is the method: the melting point: around 170° C.; and the thermal decomposition point (the weight decrease starting point): around 280° C. (measured by TG-DTA)
Data set [7] in a line: Stability test of moisture-and-heat resistance of near-IR absorption filter. It is filed as physicochemical. Here is the method: as §1
The obtained near-IR absorption filter was subjected to a stability test of moisture-and-heat resistance for 14 days in a constant temperature and constant humidity apparatus under 60° C. and 95% RH conditions. The filter was subjected to color measurement by a spectrophotometer before and after the test to calculate L*, a*, and b* values. If the + value of b* value is high, it means that the hue is yellowish and if b* value is close to 0, it means that the yellowish degree is low and filter is desirable and therefore, the hue evaluation and stability evaluation were done based on the b* value and its change.

Data set [8] can be described thus: maximum absorption wavelength (λmax) in dichloromethane. It is filed as physicochemical. The source says:
λmax: 1,102 nm (in dichloromethane);

Setting [9] is: acrylic resin filter, before test.

`CCCCN(CCCC)c1ccc([N+](=C2C=CC(=[N+](c3ccc(N(CCCC)CCCC)cc3)c3ccc(N(CCCC)CCCC)cc3)C=C2)c2ccc(N(CCCC)CCCC)cc2)cc1.[F][Sb-]([F])([F])([F])([F])[F].[F][Sb-]([F])([F])([F])([F])[F]` [Compound No. 153, hexafluoroantimonate of N,N,N′,N′-tetrakis[p-di(n-butyl)aminophenyl]phenylenediimmonium, reference compound]: the “b* value, initial period” value in data set [1] (setting [9]) is on record as 2.5. The “b* value, 14-day after” value in data set [1] (acrylic resin filter, oven at 80° C., head prints 14-day, text 21 days) amounted to 4.4. In addition, the “b* value, difference” value in data set [1] (after minus initial, oven at 80° C.) turned out to be 1.9. In addition, in data set [2], the “remaining ratio of cyanine dye (%), initial period” value is listed as 100%; the “remaining ratio of cyanine dye (%), 100-hour after” value was 27%; the “remaining ratio of cyanine dye (%), 150-hour after” value is listed as 0%. For the same compound, in data set [3], the “remaining ratio of diimmonium compound (%), 100-hour after” value was determined as 81%; the “remaining ratio of diimmonium compound (%), 150-hour after” value was found to be 76%; the “remaining ratio of diimmonium compound (%), initial period” value came out at 100%. In addition, in data set [4], the “solubility in MEK” value amounted to 4.5% and the solubility in toluene entry is recorded as “insoluble”.

As to `N#CCCCN(CCCC#N)c1ccc([N+](=C2C=CC(=[N+](c3ccc(N(CCCC#N)CCCC#N)cc3)c3ccc(N(CCCC#N)CCCC#N)cc3)C=C2)c2ccc(N(CCCC#N)CCCC#N)cc2)cc1.O=S(=O)([N-]S(=O)(=O)C(F)(F)F)C(F)(F)F.O=S(=O)([N-]S(=O)(=O)C(F)(F)F)C(F)(F)F` [Compound No. 3], the “molar absorption coefficient (ε)” value in data set [5] is on record as 109,000. In addition, in data set [2], the “remaining ratio of cyanine dye (%), initial period” value was 100%; the “remaining ratio of cyanine dye (%), 100-hour after” value was found to be 47%; the “remaining ratio of cyanine dye (%), 150-hour after” value was determined as 27%. For the same compound, in data set [6], the “thermal decomposition point (the weight decrease starting point)” value was “around 282 °C”. The “b* value, difference” value in data set [7] (14-day after minus initial, 60° C. and 95% RH) is 2.5. In addition, the “b* value, 14-day after” value in data set [7] (acrylic resin filter, 14 days at 60° C. and 95% RH) was 6.1. For the same compound, in data set [7] (setting [9]), the “b* value, initial period” value came out at 3.6. Also, the λmax in data set [8] is reported as 1,064 nm. In data set [3], the “remaining ratio of diimmonium compound (%), 100-hour after” value worked out at 88%; the “remaining ratio of diimmonium compound (%), 150-hour after” value was found to be 86%; the “remaining ratio of diimmonium compound (%), initial period” value worked out at 100%. Also, in data set [4], the “solubility in MEK” value is 2% and the solubility in toluene entry is “insoluble”.
